Measurements: US4242262A, “9-Nitromethyldeoxyclavulanic acid derivatives preparation and compositions” (Beecham Group Limited, priority 1977, dated 1980)

Experiments:
[1] = test system: Proteus C 889; assay: MIC of ampicillin alone or with compound of the Example, Proteus C 889; type: cell-based
[2] = test system: Kleb. E 70; assay: MIC of ampicillin alone or with compound of the Example, Kleb. E 70; type: cell-based
[3] = table 2 (no quantity or unit in head), Ampicillin alone

MIC ([1]; table 1, Ampicillin alone): > 500 µg/mL | MIC [1, 3]: > 500 µg/mL | MIC ([2]; table 1, Ampicillin alone): > 500 µg/mL | MIC [2, 3]: 22 500
Compound: CC1(C)S[C@@H]2[C@H](NC(=O)[C@H](N)c3ccccc3)C(=O)N2[C@H]1C(=O)O [Ampicillin]
